Measurements from paper PMC3759966 (The Biochemical journal, 2009).

Tests used:
[1] = test system: phosphorylation of MYPT at Thr850; test: MYPT Thr850 phosphorylation in HEK-293 cells; type: cell-based, human; conditions: 10 μM, 1 h; HEK-293 cells with or without G14V-Rho
[2] = test system: panel of 85 protein kinases; test: Selectivity over kinase panel; type: biochemical; conditions: 1 μM; out of the 85 kinases profiled
[3] = test system: ERM protein phosphorylation (site equivalent to Thr567 of ezrin); test: ERM protein phosphorylation in HEK-293 cells; type: cell-based, human; conditions: 10 μM, 1 h; in the presence or absence of G14V-Rho
[4] = molecular target: T1, GST–LRRK2[G2019S]-(1326–2527) (Homo sapiens, UniProt Q5S007, G2019S); test: Peptide kinase assay with inhibitors; type: biochemical; conditions: for inhibition of LRRK2[G2019S] (in words): 100 μM ATP
T1 sequence (Q5S007 1326-2527 G2019S): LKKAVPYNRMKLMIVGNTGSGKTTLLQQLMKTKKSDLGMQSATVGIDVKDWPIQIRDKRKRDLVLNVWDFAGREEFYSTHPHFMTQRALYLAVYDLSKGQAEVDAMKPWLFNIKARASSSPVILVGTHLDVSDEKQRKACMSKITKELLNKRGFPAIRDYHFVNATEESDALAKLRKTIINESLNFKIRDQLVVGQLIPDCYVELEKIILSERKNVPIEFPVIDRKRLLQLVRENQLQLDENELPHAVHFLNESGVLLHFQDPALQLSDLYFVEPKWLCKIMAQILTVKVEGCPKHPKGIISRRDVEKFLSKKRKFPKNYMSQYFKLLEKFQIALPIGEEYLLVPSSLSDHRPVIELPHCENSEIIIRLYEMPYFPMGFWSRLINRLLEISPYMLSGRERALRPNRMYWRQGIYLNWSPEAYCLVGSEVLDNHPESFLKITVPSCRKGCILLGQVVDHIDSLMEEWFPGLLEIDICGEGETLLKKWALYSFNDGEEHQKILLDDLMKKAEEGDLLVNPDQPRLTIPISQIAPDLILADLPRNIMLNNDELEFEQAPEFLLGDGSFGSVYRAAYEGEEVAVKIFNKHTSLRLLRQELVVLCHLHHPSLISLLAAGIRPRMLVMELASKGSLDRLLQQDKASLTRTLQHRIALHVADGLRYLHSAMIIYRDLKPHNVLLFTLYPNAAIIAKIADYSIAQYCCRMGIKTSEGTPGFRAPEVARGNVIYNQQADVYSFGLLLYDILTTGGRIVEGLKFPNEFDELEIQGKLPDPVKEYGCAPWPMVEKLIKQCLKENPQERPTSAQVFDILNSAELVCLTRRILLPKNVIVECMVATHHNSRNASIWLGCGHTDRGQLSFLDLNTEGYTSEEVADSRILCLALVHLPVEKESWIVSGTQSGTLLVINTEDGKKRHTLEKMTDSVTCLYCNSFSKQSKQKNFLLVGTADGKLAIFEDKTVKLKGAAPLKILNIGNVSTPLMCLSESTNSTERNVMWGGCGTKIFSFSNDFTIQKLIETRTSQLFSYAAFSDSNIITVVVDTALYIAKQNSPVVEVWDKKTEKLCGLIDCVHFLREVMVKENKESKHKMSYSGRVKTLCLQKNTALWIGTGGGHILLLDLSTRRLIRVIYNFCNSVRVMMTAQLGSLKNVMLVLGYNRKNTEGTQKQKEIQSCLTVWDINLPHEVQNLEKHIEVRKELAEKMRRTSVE

[5] = molecular target: endogenous LRRK2 from Swiss-3T3 cells (Mus musculus, UniProt Q5S006); test: Kinase assay of immunoprecipitated endogenous LRRK2 with Nictide; type: biochemical; conditions: Swiss-3T3 immunoprecipitates, Nictide substrate
endogenous LRRK2 from Swiss-3T3 cells, sequence (Q5S006 whole entry): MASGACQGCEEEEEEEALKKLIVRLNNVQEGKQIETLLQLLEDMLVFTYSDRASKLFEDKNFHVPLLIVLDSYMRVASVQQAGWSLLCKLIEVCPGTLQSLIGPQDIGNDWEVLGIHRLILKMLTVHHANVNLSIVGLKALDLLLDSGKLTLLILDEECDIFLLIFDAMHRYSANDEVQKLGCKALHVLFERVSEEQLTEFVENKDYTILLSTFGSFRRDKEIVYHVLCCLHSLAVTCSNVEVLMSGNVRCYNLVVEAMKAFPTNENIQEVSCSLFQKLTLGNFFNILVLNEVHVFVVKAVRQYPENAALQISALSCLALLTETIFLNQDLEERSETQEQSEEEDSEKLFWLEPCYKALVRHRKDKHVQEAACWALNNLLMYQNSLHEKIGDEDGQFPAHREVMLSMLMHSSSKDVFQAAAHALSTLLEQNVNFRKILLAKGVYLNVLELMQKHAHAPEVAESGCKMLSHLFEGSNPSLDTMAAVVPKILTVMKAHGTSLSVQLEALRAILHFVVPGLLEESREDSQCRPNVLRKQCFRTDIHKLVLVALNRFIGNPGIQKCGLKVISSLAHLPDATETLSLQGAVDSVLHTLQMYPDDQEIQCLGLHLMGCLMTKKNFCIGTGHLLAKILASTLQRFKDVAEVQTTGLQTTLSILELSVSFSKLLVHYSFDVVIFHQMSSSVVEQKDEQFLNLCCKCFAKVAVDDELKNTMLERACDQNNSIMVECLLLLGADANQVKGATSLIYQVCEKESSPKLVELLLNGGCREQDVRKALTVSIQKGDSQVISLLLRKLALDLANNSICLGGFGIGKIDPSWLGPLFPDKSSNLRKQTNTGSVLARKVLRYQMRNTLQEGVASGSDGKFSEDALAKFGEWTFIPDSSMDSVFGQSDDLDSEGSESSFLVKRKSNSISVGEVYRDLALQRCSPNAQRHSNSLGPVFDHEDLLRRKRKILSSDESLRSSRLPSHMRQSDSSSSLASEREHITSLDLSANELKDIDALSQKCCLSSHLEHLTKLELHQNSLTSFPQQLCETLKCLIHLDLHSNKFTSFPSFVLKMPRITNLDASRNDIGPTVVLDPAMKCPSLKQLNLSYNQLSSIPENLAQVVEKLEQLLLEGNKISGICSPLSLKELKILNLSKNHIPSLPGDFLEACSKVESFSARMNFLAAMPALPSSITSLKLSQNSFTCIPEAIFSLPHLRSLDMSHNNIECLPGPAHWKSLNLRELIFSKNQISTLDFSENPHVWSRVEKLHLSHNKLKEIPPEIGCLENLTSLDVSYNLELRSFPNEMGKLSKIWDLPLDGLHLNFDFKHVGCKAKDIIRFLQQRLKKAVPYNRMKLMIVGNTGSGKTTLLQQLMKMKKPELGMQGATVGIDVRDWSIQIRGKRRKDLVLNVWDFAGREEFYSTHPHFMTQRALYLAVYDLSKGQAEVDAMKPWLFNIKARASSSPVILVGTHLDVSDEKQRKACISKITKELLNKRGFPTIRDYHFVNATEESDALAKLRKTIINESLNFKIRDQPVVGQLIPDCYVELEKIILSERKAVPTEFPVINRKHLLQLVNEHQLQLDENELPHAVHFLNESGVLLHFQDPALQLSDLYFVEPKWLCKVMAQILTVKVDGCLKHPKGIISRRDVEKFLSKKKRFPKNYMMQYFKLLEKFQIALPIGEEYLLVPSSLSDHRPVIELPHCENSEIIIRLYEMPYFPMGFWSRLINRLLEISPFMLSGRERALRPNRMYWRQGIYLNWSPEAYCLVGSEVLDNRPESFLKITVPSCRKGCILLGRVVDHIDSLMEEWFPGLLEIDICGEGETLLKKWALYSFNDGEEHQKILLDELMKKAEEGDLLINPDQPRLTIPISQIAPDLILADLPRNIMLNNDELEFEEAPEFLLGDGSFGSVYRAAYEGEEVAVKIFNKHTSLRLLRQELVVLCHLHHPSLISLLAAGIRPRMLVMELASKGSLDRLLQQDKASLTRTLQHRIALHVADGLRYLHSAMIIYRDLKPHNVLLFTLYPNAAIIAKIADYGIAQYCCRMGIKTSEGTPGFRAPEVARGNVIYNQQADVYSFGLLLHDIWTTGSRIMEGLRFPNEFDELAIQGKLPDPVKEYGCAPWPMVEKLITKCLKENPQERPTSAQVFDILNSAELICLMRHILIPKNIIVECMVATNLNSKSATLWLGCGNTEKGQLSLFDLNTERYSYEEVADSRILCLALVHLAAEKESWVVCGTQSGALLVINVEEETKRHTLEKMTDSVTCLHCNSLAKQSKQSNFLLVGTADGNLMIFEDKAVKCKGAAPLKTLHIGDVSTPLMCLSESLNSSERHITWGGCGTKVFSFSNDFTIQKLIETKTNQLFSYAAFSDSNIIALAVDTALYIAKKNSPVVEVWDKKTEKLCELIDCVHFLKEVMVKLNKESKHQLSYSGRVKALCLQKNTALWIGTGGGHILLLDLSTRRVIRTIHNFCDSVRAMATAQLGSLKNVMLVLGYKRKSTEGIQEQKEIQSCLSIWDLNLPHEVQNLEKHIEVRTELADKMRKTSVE

Structure (SMILES)	effect on phosphorylation of MYPT at Thr850 [1]	number of kinases significantly inhibited [2]	effect on ERM protein phosphorylation [3]	inhibition of LRRK2 at high dose (in words) ([4]; doses as high as 30 μM)	inhibition of LRRK2[G2019S] (in words) [4]	effect on protein kinase activity in LRRK2 immunoprecipitate [5]
CCn1c(-c2nonc2N)nc2cnc(Oc3cccc(NC(=O)c4ccc(OCCN5CCOCC5)cc4)c3)cc21 [GSK269962A]	ablated phosphorylation	seven	did not inhibit	–	–	–
CC1=C(C(=O)Nc2cc3cn[nH]c3cc2F)C(c2ccc(C(F)(F)F)cc2)CC(=O)N1 (stereo not shown) [GSK429286A]	ablated phosphorylation	–	did not inhibit	does not significantly inhibit	–	–
O=S(=O)(NCCNCC=Cc1ccc(Br)cc1)c1cccc2cnccc12 [H-89, N-[2-(p-bromocinnamylamino)ethyl]-5-isoquinolinesulfonamide]	–	–	–	–	weakly	–
Cc1cncc2cccc(S(=O)(=O)N3CCCNC[C@@H]3C)c12 [H-1152, (S)-(+)-2-methyl-1-[(4-methyl-5-isoquinoline)sulfonyl]-homopiperazine]	ablated phosphorylation	–	did not inhibit	–	–	suppressed
O=S(=O)(c1cccc2cnccc12)N1CCCNCC1 [HA-1077, fasudil]	–	–	–	–	weakly	–
C[C@@H](N)[C@H]1CC[C@H](C(=O)Nc2ccncc2)CC1 [Y-27632]	ablated phosphorylation	–	did not inhibit	–	–	–
